Experiments:
[1] = system: Zymoseptoria tritici strain Zt Tri-R6; experiment: Preventive treatment of wheat plants, inoculated leaf fragments (detached leaf test), necrosis length / AUDPC; assay type: in vivo
Description: A study was conducted to evaluate efficacy of multi-site fungicide (Captan) on zymoSeptoria tritici pathogen. Winter wheat plants cv. Alixan (Limagrain) at the BBCH 12 growth stage were treated with a hand sprayer at 2 bars calibrated to deliver the equivalent of 200 L/ha. Three replicates (pots) of 6 wheat plants each are used for all conditions tested. After treatment, wheat plants are left to dry at room temperature for 1 hour and then placed in a climatic chamber.
Twenty-four hours after treatments, 5-cm fragments of the first leaf are cut and transferred on 90-mm diameter Petri dish containing water agar supplemented with an anti-senescing compound (7 leaf fragments per Petri dish). Leaf fragments are then inoculated with a paint brush dipped into the calibrated pycnospores suspension of Z. tritici strain Mg Tri-R6.
After inoculation, Petri dishes are placed in adapted climatic conditions.
Disease assessments are carried out 21 and 28 days post inoculation (dpi) by measuring the length of the necrosis and the total length of the leaf fragment. The intensity of infection is then determined in percent of the total length of the leaf fragment. The values of the intensity of infection obtained are compared by means of the Newman and Keuls test (XL-Stat software, Addinsoft Ltd.).
The most commonly used method for estimating the Area Under the Disease Progress Curve (AUDPC), the trapezoidal method, is performed. The fungicide efficacy was determined from the intensity of infection and the AUDPC values and expressed in percent of the untreated control.

[2] = system: Speckled leaf blotch of wheat (Spetoria Titrici); experiment: Field trials (Trial 1 and Trial 2) in winter wheat, control of speckled leaf blotch; assay type: in vivo, Zymoseptoria tritici
Description: Two trials were conducted in Winter wheat/Triticum aestivum (winter), variety ADVISOR, to evaluate the control of Speckled leaf blotch of wheat (Spetoria Titrici) as primary target. All products were applied with a knapsack sprayer using compressed air as the propellant. The sprayer was equipped with a boom and flat fan nozzles, and calibrated to apply a homogeneous spray volume at a constant pressure.
Application method: Application A: At the beginning of disease attack and Application B: Renew the application when new disease attack occurs in the best plots, 3 weeks after application A (at least 2 weeks, at the most 4 weeks).

[3] = Dose 1600 g a.i./ha, strain Zt Tri-R6, wheat leaf fragments treated preventively

Question: `N#Cc1c(Cl)c(Cl)c(Cl)c(C#N)c1Cl` [Chlorothalonil] was tested. Which “Fungicide efficacy against Zymoseptoria tritici (% Control)” value (shortened to “Fungicide efficacy … (% Control)”) ([1]; Dose 750 g a.i./ha, strain Zt Tri-R6, wheat leaf fragments treated preventively) did it give?
Answer: Its value is 69.2 % Control.

Question: Which “Fungicide efficacy … (% Control)” value ([1]; Dose 4200 g a.i./ha, strain Zt Tri-R6, wheat leaf fragments treated preventively) does the source give for `S1SSSSSSS1` [sulphur] here?
Answer: Its value is 65.8 % Control.

Question: How did the “Fungicide efficacy … (% Control)” value ([1]; Table 2, from AUDPC values, dose 25 g a.i./ha, strain Zt Tri-R6) turn out when `CC1COC(Cn2cncn2)(c2ccc(Oc3ccc(Cl)cc3)cc2Cl)O1` (stereo not drawn) [Difenoconazole] was run?
Answer: The value was 81.8 % Control.

Question: For Mancozeb, which “Fungicide efficacy … (% Control)” value [1, 3] is on record?
Answer: Its value is 21.0 % Control.

Question: `OC(Cc1ccccc1Cl)(Cn1nc[nH]c1=S)C1(Cl)CC1` (stereo not drawn) [Prothioconazole] was tested. Which “Fungicide efficacy against Zymoseptoria tritici (%)” value ([1]; Table 3, from AUDPC values, dose 30 g a.i./ha, strain Zt Tri-R6) did it give?
Answer: The value was 68.2%.

Question: What about the “Fungicide efficacy against Zymoseptoria tritici (%)” value ([1]; Table 4, from AUDPC values, dose 22.5 g a.i./ha, strain Zt Tri-R6) of the same compound?
Answer: Its value is 62.9%.

Question: And the “Fungicide efficacy … (% Control)” value ([2]; Trial 1, winter wheat field, rate 0.31 L/ha, 28 DA-B (first 28 DA-B column))?
Answer: Its value is 31.2 % Control.

Question: What about the “Fungicide efficacy … (% Control)” value ([2]; Trial 1, winter wheat field, rate 0.31 L/ha, 28 DA-B (second 28 DA-B column)) of the same compound?
Answer: Its value is 28.8 % Control.

Question: And the “Fungicide efficacy … (% Control)” value ([2]; Trial 2, winter wheat field, rate 0.31 L/ha, 26 DA-A)?
Answer: The value was 42.3 % Control.

Question: What about the “Fungicide efficacy … (% Control)” value ([2]; Trial 2, winter wheat field, rate 0.31 L/ha, 40 DA-A (first 40 DA-A column)) of the same compound?
Answer: Its value is 40.7 % Control.

Question: And the “Fungicide efficacy … (% Control)” value ([2]; Trial 2, winter wheat field, rate 0.31 L/ha, 40 DA-A (second 40 DA-A column))?
Answer: The value was 58.4 % Control.

Question: What does the source list for `O=C1C2CC=CCC2C(=O)N1SC(Cl)(Cl)Cl` (stereo not drawn) [Captan]?
Answer: efficiency ([1]; 800 g/ha, strain Zt Tri-R6): 77%; inhibition of the development of the Z. tritici strain into wheat leaf tissues ([1]; 1600, 2400 and 3200 g/ha): almost completely inhibits; Fungicide efficacy against Zymoseptoria tritici (% Control) ([1]; Dose 800 g a.i./ha, strain Zt Tri-R6, wheat leaf fragments treated preventively): 77.9 % Control; Fungicide efficacy against Zymoseptoria tritici (% Control) [1, 3]: 96.0 % Control; Fungicide efficacy against Zymoseptoria tritici (% Control) ([1]; Dose 2400 g a.i./ha, strain Zt Tri-R6, wheat leaf fragments treated preventively): 97.0 % Control; Fungicide efficacy against Zymoseptoria tritici (% Control) ([1]; Dose 3200 g a.i./ha, strain Zt Tri-R6, wheat leaf fragments treated preventively): 100 % Control; effectiveness for controlling Septoria tritici ([1]; conclusion from Tables 1 to 5): effective for controlling Septoria tritici; fungicidal efficacy against Zymoseptoria tritici strain Zt Tri-R6 ([1]; lowest rate of 800 g/ha): very good fungicidal efficacy; Fungicide efficacy against Zymoseptoria tritici (% Control) ([2]; Trial 1, winter wheat field, rate 1.8 L/ha, 28 DA-B (first 28 DA-B column)): 32.4 % Control; Fungicide efficacy against Zymoseptoria tritici (% Control) ([2]; Trial 1, winter wheat field, rate 1.8 L/ha, 28 DA-B (second 28 DA-B column)): 24.5 % Control; Fungicide efficacy against Zymoseptoria tritici (% Control) ([2]; Trial 2, winter wheat field, rate 1.8 L/ha, 26 DA-A): 41.3 % Control; Fungicide efficacy against Zymoseptoria tritici (% Control) ([2]; Trial 2, winter wheat field, rate 1.8 L/ha, 40 DA-A (first 40 DA-A column)): 31.9 % Control; Fungicide efficacy against Zymoseptoria tritici (% Control) ([2]; Trial 2, winter wheat field, rate 1.8 L/ha, 40 DA-A (second 40 DA-A column)): 25.7 % Control

Source: patent US12389908B2, “Fungicide composition for controlling Zymoseptoria infection in plant” (priority 2019, dated 2025)
